Experimental data from US5491236A, “(1,2N) and (3,2N)-carbocyclic-2-amino tetralin derivatives” (The Upjohn Company, priority 1991, dated 1996).
Where a name gives a salt, the structure may show the parent alone.

Assays:
[1] = BP SND/MAX: blood pressure of chloralose anesthetized cats; format: in vivo; conditions: for % BP Control: blood pressure in percent control at the dose causing 50% depression in SND, cats i.v.; for Max. Decr. BP (at SND ED50): maximum reduction in blood pressure as percent of control, 0.001-1.0 mg/kg i.v., cats
Procedure: BP SND/MAX: The blood pressure of the chloralose anesthetized cats in percent control at the dose causing 50% depression in SND and the maximum reduction in blood pressure as percent of the control blood pressure in the same animals observed in the dose range tested (0.001-1.0 mg/kg i.v.).

[2] = test system: Sympathetic Nerve Discharge; assay: Sympathetic Nerve Discharge (SND) in chloralose anesthetized cats; format: in vivo; conditions: for Max. Decr. SND %: maximum inhibition of sympathetic activity in dose range 0.001-1.0 mg/kg i.v., cats
Procedure: Sympathetic Nerve Discharge (SND): The i.v. mg/kg dose causing a 50% depression in SND in chloralose anesthetized cats and the maximum inhibition of sympathetic activity observed in the dose range tested (0.00 1-1.0 mg/kg i.v. ).

[3] = target: T1, 5-hydroxytryptamine (5-HT1A) receptor (Bos taurus, UniProt F6Q2H9); assay: Inhibition of 8-OH-DPAT binding in a bovine brain homogenate (5-HT1A binding)
T1 construct: from tissue; host or cells: bovine brain homogenate
T1 sequence (F6Q2H9 1-422): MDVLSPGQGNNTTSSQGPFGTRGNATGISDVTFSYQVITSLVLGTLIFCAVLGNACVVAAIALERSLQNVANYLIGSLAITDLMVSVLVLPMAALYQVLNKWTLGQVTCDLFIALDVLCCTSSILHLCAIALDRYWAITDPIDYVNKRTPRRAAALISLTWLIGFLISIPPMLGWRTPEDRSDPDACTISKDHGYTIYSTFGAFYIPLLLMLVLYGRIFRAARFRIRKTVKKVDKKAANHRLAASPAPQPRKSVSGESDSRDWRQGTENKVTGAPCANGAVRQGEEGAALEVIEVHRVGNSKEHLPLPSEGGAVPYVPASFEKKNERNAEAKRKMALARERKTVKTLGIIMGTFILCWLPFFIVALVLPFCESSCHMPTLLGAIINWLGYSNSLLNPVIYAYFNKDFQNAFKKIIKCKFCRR
Description: Binding: Inhibition of 8-OH-DPAT binding in a bovine brain homogenate. Potency is given as nM dose required to inhibit 50% of DPAT binding (IC50). This test measures ability to bind to 5-hydroxytryptamine (5-HT1A) receptor.

[4] = Hypothermia in mice (s.c.); format: in vivo; conditions: subcutaneous, dose required to depress temperature by 2° C. in two of four mice; for ED50: Mus musculus, sc
Procedure: Hypothermia: Starting with a dose of 30 mg/kg, four mice are injected subcutaneously with test compound. Twenty minutes later, the number of animals whose body temperature has decreased by 2° C. or more are counted. If all four animals reach criteria, the drug is considered "active", and subsequent readings are taken at 60 and 120 minutes after drug. The time for last statistically significant drug affect on mean body temperature is indicated in minutes. […] Potency is given as mg/kg ED50 (dose required to depress temperature in two of four mice) as measured by Spearman-Karber statistics.

[5] = test system: 5-HT1A receptor; assay: Selectivity, IC50 ratio of dopamine D2 to 5-HT1A in vitro binding; conditions: result in words
Description: (§1) The compounds of this invention where R1 is in 8-position in the aromatic ring are very selective 5-HT1A receptor agonists having generally little or no dopaminergic activity. […] The compound of this invention where R1 is in 5-position in the aromatic ring, on the other hand, have dopaminergic activity with little 5-HT1A agonist activity. […] These compounds are particularly effective anxiolytic and antidepressant agents. Other uses for these compounds include panic attacks, obsessive-compulsive disturbances, and senile dementia particularly the emotional disturbances seen in dementia disorders. In addition, central 5 -HT receptor activation are believed to be involved in mediating sexual behavior. These compounds would be useful to stimulate sexual activity and to alleviate impotence. The compounds of this invention are also useful to alleviate aggressive behavior, confusional delirious states.

[6] = test system: 5-HT1A receptor; assay: 5-HT1A agonist activity; conditions: result in words
Description: as §1

[7] = test system: dopamine; assay: Dopamine activity (evaluation of dopamine and serotonin metabolites); conditions: result in words
Description: as §1

[8] = Chem. Ab., 79: 146294b; cited from earlier work
[9] = J. Pharm. Sci., 67, 880-82 (1978); cited from earlier work
[10] = test system: dopamine receptors; conditions: background, result in words; cited from earlier work
[11] = some patients; result in words; cited from earlier work
[12] = test system: dopamine autoreceptors; conditions: background, result in words; cited from earlier work
[13] = man, low doses; result in words; cited from earlier work

C=CCN1CC[C@@H]2c3ccccc3CC[C@@H]21.Cl (racemic) [Example 4 Compound #1, Cis-(+-)-2,3,3a,4,5,9b-hexahydro-3-(2-propenyl)-1H-benz[e]indole hydrochloride]
% BP Control [1]: 76% | Max. Decr. BP (at SND ED50) [1]: 60% | ED50 ([2]; Felis catus, iv, i.v. dose causing 50% depression in SND, chloralose anesthetized cats): 0.09 mg/kg | Max. Decr. SND % [2]: 0.0%

C=CCN1CC[C@@H]2c3c(cccc3OC)CC[C@@H]21 (racemic) [Example 4 Compound #2, cis-(+-)-2,3,3a,4,5,9b-hexahydro-9-methoxy-3-(2-propenyl)-1H-benz[e]indole hydrochloride]
IC50 [3]: 2.8 nM | ED50 [4]: 2.3 mg/kg | selectivity for the 5-HT1A receptor [5]: demonstrates the selectivity for the 5-HT1A receptor

C=CCN1CC[C@@H]2c3cccc(OC)c3CC[C@@H]21.Cl (racemic) [Example 4 Compound #3, Cis-(+-)-2,3,3a,4,5,9b-hexahydro-6-methoxy-3-(2-propenyl)-1H-benz[e]indole hydrochloride]
IC50 [3]: 628 nM | ED50 [4]: 30 mg/kg | 5-HT1A agonist activity [6]: low 5-HT1A agonist activity | dopamine activity ([7]; hydrochloride): good selective dopamine activity | dopamine activity ([7]; listed as Example 4, compound #3, hydrochloride): selective dopamine antagonist activity

C=CCN1[C@H](C)C[C@H]2c3c(O)cccc3CC[C@H]21 (relative stereo) [Example 2 Compound #1, (+-)-2α,3,3a,α,4,5,9b,α-hexahydro-2-methyl-3-(2-propenyl)-1H-benz[e]indol-9-ol hydrochloride]
IC50 [3]: 0.96 nM | ED50 [4]: 5.5 mg/kg

CN(C)C1CCc2ccc(O)cc2C1(C)C (stereo not drawn) [1,1-Dimethyl-2-(N,N-dimethylamino)-7-hydroxytetralin]
analgesic and intestinal movement accelerating actions [8]: analgesic and intestinal movement accelerating actions

COc1cccc2c1CCC(NC1CC1)C2C (stereo not drawn) [1-methyl-2-(cyclopropylamino)-5-methoxytetralin]
local anesthetic activity [9]: local anesthetic activity

O=C1CC2(CCCC2)CC(=O)N1CCCCN1CCN(c2ncccn2)CC1 [Buspirone]
dopamine receptor antagonism [10]: antagonizes dopamine receptors at the same dose it stimulates 5-HT1A receptors

CC1(C)CC(=O)N(CCCCN2CCN(c3ncccn3)CC2)C(=O)C1 [Gepirone]
dopamine receptor antagonism [10]: dopamine antagonist properties | effects on depressive endpoints [11]: ameliorative effects on some depressive endpoints in some patients

CN1CCc2cccc3c2[C@H]1Cc1ccc(O)c(O)c1-3 [apomorphine]
activation of dopamine autoreceptors and post synaptic dopamine receptors [12]: able to activate the dopamine autoreceptors as well as the post synaptic dopamine receptors | anti-psychotic and anti-dyskinetic effects [13]: anti-psychotic and anti-dyskinetic effects in man

(+-)-1,2,2a,-3,4,8b-hexahydro-8-methoxy-2-(prop-2-en-1-yl)-naphtho[2, 1-B]azetidine hydrochloride [Example 5 Compound #1]
% BP Control [1]: 77% | Max. Decr. BP (at SND ED50) [1]: 59% | IC50 [3]: 14.8 nM | Hypothermia ED50 [4]: 4.1 mg/kg | SND ED50 ([2]; i.v. dose causing 50% depression in SND, chloralose anesthetized cats): 0.083 mg/kg | Max. Decr. SND % [2]: 14.0%
